From paper PMC3966885, “F9 Fimbriae of Uropathogenic Escherichia coli Are Expressed at Low Temperature and Recognise Galβ1-3GlcNAc-Containing Glycans” (PLoS ONE, 2014) come the findings set out here.

The target in this assay is T1, F9 fimbriae (F9 adhesin) (Escherichia coli, UniProt A0A0H2V7F6).
T1 construct: gene ydeQ; whole F9 fimbriae (six-gene operon c1931-c1936, plasmid pF9, ara promoter) over-expressed on GFP-labelled E. coli K-12 MG1655fim (MS428); mature adhesin 280 aa, N-terminal lectin domain 160 aa
As to the kind of experiment: glycan array with whole GFP-labelled F9 over-expressing E. coli. Type of assay: cell-based. Particulars: glycan printed on super epoxy slide; PBS with 2 mM MgCl2 and CaCl2, room temperature; also used free at 50 μM as competitor.

T1 sequence (A0A0H2V7F6 entry or part of it): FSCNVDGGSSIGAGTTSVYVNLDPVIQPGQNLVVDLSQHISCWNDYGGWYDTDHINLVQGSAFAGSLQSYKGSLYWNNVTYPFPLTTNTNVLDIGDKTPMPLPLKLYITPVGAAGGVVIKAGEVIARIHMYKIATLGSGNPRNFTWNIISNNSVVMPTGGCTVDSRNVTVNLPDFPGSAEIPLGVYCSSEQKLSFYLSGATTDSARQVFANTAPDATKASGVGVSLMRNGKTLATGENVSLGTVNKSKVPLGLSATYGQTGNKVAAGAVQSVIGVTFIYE

Regarding `CC(=O)N[C@H]1[C@H](O[C@H]2[C@@H](O)[C@@H](CO)O[C@@H](O[C@H]3[C@H](O)[C@@H](O)C(O)O[C@@H]3CO)[C@@H]2O)O[C@H](CO)[C@@H](O)[C@@H]1O[C@@H]1O[C@H](CO)[C@H](O)[C@H](O)[C@H]1O` (stereo partly shown) [lacto-N-tetraose, Galβ1-3GlcNAcβ1-3Galβ1-4Glc], the “glycan array with whole GFP-labelled F9 over-expressing E. coli” value is given as “Of the glycans that were bound by F9 fimbriae, lacto-N-tetraose displayed the highest affinity”.
